Data as given in patent US20100009935A1, “RESISTANCE-REPELLENT […] INHIBITORS” (priority 2002, published 2010).
Like-named read-outs stand apart in the source and are kept apart here.

Columns and labels:
Format in all cases: cell-based
[1] = test system: HIV-2EHO; assay: Drug sensitivity of HIV-2EHO in MT-2 cells, MTT assay; details: HT-2 (footnote: MT-2 cells), day 7, read-out: MEAN IC50 (μM) ± SDs
Method: (§1) The sensitivities of HIV-1LAI, HIV-1Ba-L, HIV-2EHO and the primary HIV-1 isolates against various drugs were determined as previously described with minor modifications (Shiraska et al., Proc. Natl. Acad. Sci. USA, 92, 2398-2402 (1995)).

[2] = test system: HIV-1Ba-L; assay: microbe, parasite or virus in culture; details: Human immunodeficiency virus 1, 168 h, PBNC (PHA-PBMC), p24 production, day 7, read-out: MEAN IC50 (μM) ± SDs
Method: as §1

[3] = test system: HIV-1LAI; assay: microbe, parasite or virus in culture; details: day 7, read-out: MEAN IC50 (μM) ± SDs
Method: as §1

[4] = test system: HIV-1 clinical isolate 7; assay: PI sensitivity of PI-resistant clinical isolate 7 in PHA-PBMC, p24; details: for IC50: Human immunodeficiency virus 1, isolate 7: L10I, L24I, L33F, E35D, H36I, H37S, N46L, I54V, R57K, I62V, L63P, A71V, G73S, V82A, PHA-PBMC, p24; for FOLD CHANGE of IC50: isolate 7 compared to HIV-1wt (HIV-1ERS104pre)
[5] = test system: HIV-1ERS104pre (wild-type clinical strain); assay: PI sensitivity of wild-type clinical isolate in PHA-PBMC, p24; details: for FOLD CHANGE of IC50: wild type HIV-1ERS104pre, reference (=1)
[6] = test system: HIV-1 clinical isolate 8; assay: PI sensitivity of PI-resistant clinical isolate 8 in PHA-PBMC, p24; details: for IC50: isolate 8: L10R, H37D, N46I, I62V, L63P, A71V, G73S, V77I, V82T, L90M, I93L, PHA-PBMC, p24; for FOLD CHANGE of IC50: isolate 8 compared to HIV-1wt (HIV-1ERS104pre)
[7] = test system: HIV-1 clinical isolate 1; assay: PI sensitivity of PI-resistant clinical isolate 1 in PHA-PBMC, p24; details: for IC50: Human immunodeficiency virus 1, isolate 1: L10I, K14R, L33I, N36I, H46I, F53L, K55R, I62V, L63P, A71V, G73S, V82A, L90M, I93L, PHA-PBMC, p24; for FOLD CHANGE of IC50: isolate 1 compared to HIV-1wt (HIV-1ERS104pre)
[8] = test system: HIV-1 clinical isolate 5; assay: PI sensitivity of PI-resistant clinical isolate 5 in PHA-PBMC, p24; details: for IC50: isolate 5: L10I, K43T, N46L, I54L, L63P, A71T, V82A, L90N, D92K, PHA-PBMC, p24; for FOLD CHANGE of IC50: isolate 5 compared to HIV-1wt (HIV-1ERS104pre)
[9] = test system: highly cross-resistant HIV-1 strains derived from AIDS patients
[10] = test system: HIV-1 clinical isolate 6; assay: PI sensitivity of PI-resistant clinical isolate 6 in PHA-PBMC, p24; details: for IC50: Human immunodeficiency virus 1, isolate 6: L10I, K14R, B41K, H46L, I54V, L63P, A71V, V82A, L90M, I93L, PHA-PBMC, p24; for FOLD CHANGE of IC50: isolate 6 compared to HIV-1wt (HIV-1ERS104pre)
[11] = test system: HIV-1UIC-P62; assay: PI sensitivity of compound 1-selected HIV-1UIC-P62 in MT-2 cells, MTT assay; details: HIV-1UIC-P62 (L10F, A28S, M46I, I50V, A71V, N88D), day 7
[12] = test system: HIV-1 clinical isolate 4; assay: PI sensitivity of PI-resistant clinical isolate 4 in PHA-PBMC, p24; details: for IC50: isolate 4: L10I, V11I, T12E, I15V, L19I, B41K, H46L, L63P, A71T, V82A, L90M, PHA-PBMC, p24; for FOLD CHANGE of IC50: isolate 4 compared to HIV-1wt (HIV-1ERS104pre)
[13] = test system: HIV-1 clinical isolate 2; assay: PI sensitivity of PI-resistant clinical isolate 2 in PHA-PBMC, p24; details: for IC50: isolate 2: L10I, I15V, K20R, N36I, H46L, I54V, K55R, I62V, L63P, K70D, V82A, L89N, PHA-PBMC, p24; for FOLD CHANGE of IC50: isolate 2 compared to HIV-1wt (HIV-1ERS104pre)
[14] = test system: HIV-1 clinical isolate 3; assay: PI sensitivity of PI-resistant clinical isolate 3 in PHA-PBMC, p24; details: for IC50: isolate 3: L10I, I15V, E35D, N37E, K45R, I54V, L63P, A71V, V82I, L90N, I93L, C95F, PHA-PBMC, p24; for FOLD CHANGE of IC50: isolate 3 compared to HIV-1wt (HIV-1ERS104pre)
[15] = test system: HIV-1APV-P30; assay: PI sensitivity of APV-selected HIV-1APV-P30 in MT-2 cells, MTT assay; details: for FOLD CHANGE of IC50: HIV-1APV-P30 compared to HIV-1NL4-3 (wild type)
[16] = test system: HIV-1NL4-3; details: for FOLD CHANGE of IC50: HIV-1NL4-3, reference (=1); for IC50: Human immunodeficiency virus 1, MT2, 168 h, HIV-1NL4-3 (wild type), MT-2 cells, MTT assay, day 7
[17] = Human immunodeficiency virus 2, MT2, 168 h
[18] = Human immunodeficiency virus 1, 168 h, PBMC (PHA-PBMC), p24 production
[19] = Human immunodeficiency virus 1, MT2, 168 h, HT-2 (footnote: MT-2 cells), MTT assay
[20] = Human immunodeficiency virus 1, read-out: IC50 μM
[21] = Human immunodeficiency virus 1, MT2, 168 h
[22] = multidrug resistant patient isolates

Structure (SMILES)	IC50 [1, 17] [µM]	IC50 [2] [µM]	IC50 [3, 18] [µM]	IC50 [3, 19] [µM]	IC50 [4] [nM]	IC50 [5, 20] [µM]	IC50 ([6]; Human immunodeficiency virus 1) [nM]	IC50 [7] [nM]	IC50 ([8]; Human immunodeficiency virus 1) [nM]	IC50 [10] [nM]	IC50 [11, 21] [nM]	IC50 ([12]; Human immunodeficiency virus 1) [nM]	IC50 ([13]; Human immunodeficiency virus 1) [nM]	IC50 ([14]; Human immunodeficiency virus 1) [nM]	IC50 [15, 21] [nM]	IC50 [16] [nM]	antiviral activity against patient isolates with multiple mutations compared with wild type HIV strains (in words) [9, 22]	also measured
Nc1ccn([C@@H]2CS[C@H](CO)O2)c(=O)n1 [Compound 3TC, LAMIVUDINE]	0.4 ± 0.25	0.054 ± 0.046	0.021 ± 0.018	0.66 ± 0.01														
CC(C)(C)NC(=O)[C@@H]1CN(Cc2cccnc2)CCN1C[C@@H](O)C[C@@H](Cc1ccccc1)C(=O)N[C@H]1c2ccccc2C[C@H]1O [IDV, Indinavir]	0.01 ± 0.004	0.017 ± 0.011	0.015 ± 0.004	0.019 ± 0.009	> 1000	0.013	550	> 1000	> 1000	300	80	210	490	490	320	11		FOLD CHANGE of IC50 [4]: (>77) fold; FOLD CHANGE of IC50 [5]: (1) fold; FOLD CHANGE of IC50 [6]: (42) fold; FOLD CHANGE of IC50 [7]: (>77) fold; FOLD CHANGE of IC50 [8]: (>77) fold; antiviral activity against patient isolates with multiple mutations compared with wild type HIV strains (in words) [9]: dramatically less potent; FOLD CHANGE of IC50 [10]: (23) fold; FOLD CHANGE of IC50 [12]: (16) fold; FOLD CHANGE of IC50 [13]: (38) fold; FOLD CHANGE of IC50 [14]: (38) fold; FOLD CHANGE of IC50 [15]: (30) fold; FOLD CHANGE of IC50 [16]: (1) fold
CC(C)CN(C[C@@H](O)[C@H](Cc1ccccc1)NC(=O)O[C@H]1CCOC1)S(=O)(=O)c1ccc(N)cc1 [APV, Amprenavir]	0.53 ± 0.03	0.023 ± 0.009	0.017 ± 0.003	0.041 ± 0.01	490	0.025	150	270	670	160	830	310	280	260	> 1000	42	much less effective	
Cc1cn([C@H]2C[C@H](N=[N+]=[N-])[C@@H](CO)O2)c(=O)[nH]c1=O [AZT, 3′-azido-2′,3′-dideoxythymidine]	0.003 ± 0.001	0.011 ± 0.007	0.003 ± 0.0002	0.024 ± 0.003														
OC[C@@H]1CC[C@H](n2cnc3c(O)ncnc32)O1 [ddI, 2′,3′-dideoxyinosine]	2.8 ± 0.6	1.5 ± 1.1	0.62 ± 0.02	3.4 ± 0.2														
CC(C)(C)NC(=O)[C@@H]1C[C@@H]2CCCC[C@@H]2CN1C[C@@H](O)[C@H](Cc1ccccc1)NC(=O)[C@H](CC(N)=O)NC(=O)c1ccc2ccccc2n1 [SQV, Saquinavir]	0.004 ± 0.0005	0.014 ± 0.01	0.011 ± 0.005	0.023 ± 0.002	120	0.03	42	270	310	190	10	33	37	36	35	19	dramatically less potent	FOLD CHANGE of IC50 [4]: (12) fold; FOLD CHANGE of IC50 [5]: (1) fold; FOLD CHANGE of IC50 [6]: (4) fold; FOLD CHANGE of IC50 [7]: (27) fold; FOLD CHANGE of IC50 [8]: (31) fold; level of resistance (fold), range over the isolates ([9]; compared to wild-type clinical strain HIV-1ERS104pre): 3-31 fold; FOLD CHANGE of IC50 [10]: (19) fold; FOLD CHANGE of IC50 [12]: (3) fold; FOLD CHANGE of IC50 [13]: (4) fold; FOLD CHANGE of IC50 [14]: (4) fold; FOLD CHANGE of IC50 [15]: (2) fold; FOLD CHANGE of IC50 [16]: (1) fold
Cc1c(O)cccc1C(=O)N[C@@H](CSc1ccccc1)[C@H](O)CN1C[C@H]2CCCC[C@H]2C[C@H]1C(=O)NC(C)(C)C [NFV, Nelfinavir]	0.02 ± 0.01		0.009 ± 0.0003	0.005 ± 0.002	> 1000	0.023	> 1000	> 1000	410	> 1000	110	90	330	> 1000	> 1000	23	dramatically less potent	
COc1ccc(S(=O)(=O)N(CC(C)C)C[C@@H](O)[C@H](Cc2ccccc2)NC(=O)O[C@H]2CO[C@H]3OCC[C@H]32)cc1 [UIC-94003]																	equivalent	IC50 [1]: 0.0005 ± 7e-05 µM; IC50 ([5]; wild type HIV-1ERS104pre (L63P), PHA-PBMC, p24, read-out: IC50): 0.0007 µM; IC50 [6]: 1 nM; IC50 [8]: 2.4 nM; IC50 ([9]; eight highly PI-resistant clinical isolates, PHA-PBMC, read-out: IC50 values, range over all eight isolates): 0.5 to 5.5 nM; IC50 [11]: 21 nM; IC50 [12]: 1.6 nM; IC50 [13]: 1.3 nM; IC50 [14]: 1 nM; IC50 ([15]; HIV-1APV-P30 (L10F, V32I, M46I, I54M, A71V, I84V), MT-2 cells, MTT assay, day 7, read-out: IC50): 29 nM
